The source of these data is US11215608B2, “Methods of determining cellular chemosensitivity” (Dana-Farber Cancer Institute, Inc., priority 2006, dated 2022).

pEC50: −log10 of the molar value. Ends that are not written are not given here. Peptide text beside a SMILES is read from it. * marks the point of attachment. Cbz = O=C(OCc1ccccc1)*; CH2F = FC*

One experiment concerns mouse liver mitochondria. The experiment in a line: Cytochrome c release from mouse liver mitochondria. It counts as biochemical. To be noted: no tBID, also at 10-fold higher concentrations. As for the experimental part:
(§1) Mitochondria were purified from liver and FL5.12cells as previously described (Letai et al., 2002). Mitochondria were purified from leukemia cells and 2B4 cells as previously described for FL5.12 cells. Mitochondria were incubated with treatments for 45 (mouse liver mitochondria) or 35 minutes (FL5.12, 2B4, and leukemic mitochondria). Release of cytochrome c was determined by a comparison of cytochrome c in the pellet and supernatant following treatment, quantitated by ELISA (R&D systems). When results of multiple experiments were averaged, results from solvent-only (DMSO) treatments values were subtracted from each, so that 0 release reflects that observed in solvent-only treatments.
To test if selective binding corresponded to ability of individual BH3 domains to selectively antagonize antiapoptotic function, a purified mitochondrial system was constructed in which the critical apoptosis decision making molecular machinery was reconstituted. […] The multidomain proapoptotic function was provided by the BAK which resides in mouse liver Mitochondria; mouse liver mitochondria contain no detectable BAX protein (Letai et al., 2002). The dominant antiapoptotic function was provided by one of the five different recombinant antiapoptotic proteins used in the binding assays. BH3 peptides provided the sensitizer function.
Furthermore, when the panel of sensitizer BH3 peptides was tested in the presence of the antiapoptotic protein BCL-XL, there was still no cytochrome c release, formally ruling out the possibility that the BH3 peptides were somehow directly converting antiapoptotic proteins to a proapoptotic function (FIG. 2). To induce MOMP and cytochrome c release, there appears to be an absolute requirement for an activator function, here provided by the tBID protein.

For another experiment, the system named is leukemic mitochondria. Description: Cytochrome c release from BCL-2 dependent leukemia mitochondria. It counts as biochemical, mouse. As for the experimental part:
as §1
Leukemia prone mice were generated as previously described (Letai, 2004). Mouse experimental protocols conform to the relevant regulatory standards and were approved by the Dana-Farber Cancer Institute Animal Care and Use Committee.
Previous results have described a mouse acute lymphocytic leukemia model in which c-myc is constitutively expressed and human BCL-2 is repressibly expressed. In this model, when BCL-2 transgene expression is eliminated by administration of doxycycline, the leukemic cells undergo apoptosis, resulting in rapid resolution of the leukemia (Letai, 2004). This provides an ideal in vivo model of a BCL-2 dependent cancer. It was hypothesized that dependence on BCL-2 was due to a similar mechanism to that of the IL-3 deprived FL5.12-BCL-2 cells—that is, a death signal was being initiated and carried by an activator BH3 molecule, but BCL-2 was binding it and preventing its interaction with multidomain proapoptotic proteins.
Mitochondria were isolated from leukemia cells and exposed to sensitizer BH3 peptides. Subsequently, cytochrome c release was measured. As an internal control, mitochondria were isolated from liver from the leukemic mice in parallel (FIG. 8A).

The subject of the next experiment is CLL mitochondria. The experiment in a line: Cytochrome c release from CLL mitochondria. It counts as biochemical, human. The settings on record: peptides or compounds 100 μM. As for the experimental part:
Alternatively, mitochondria were purified from freshly isolated CLL cells and cell lines by mechanical disruption followed by differential centrifugation, as previously described (Letai et al., 2002). Mitochondrial suspensions were made at 0.5 mg protein/ml, except for the case of ABT-737 and negative control enantiomer treatments, where 0.1 mg/ml was used. Release of cytochrome c was determined by a comparison of cytochrome c in the pellet and supernatant quantitated by ELISA (R&D systems).
CLL mitochondria were incubated with BH3 peptides as well as ABT-737 and negative control enantiomer (FIG. 14). […] This pattern is diagnostic of mitochondrial BCL-2 dependence. […] Since the BH3 peptides in the sensitizer panel lack the ability to directly activate BAX and BAK, these experiments also implicated the presence of an activator molecule constitutively sequestered by BCL-2 in CLL.

The subject of the next experiment is SU-DHL6. The experiment in a line: BH3 profiling, cytochrome c release from lymphoma mitochondria. It counts as biochemical. The settings on record: SU-DHL 6. The text has this:
(§2) BH3 profiling allows for the prediction of response of cancer cells to anti-cancer therapeutics. For the purposes of this application, therapeutics can be divided into those that target anti-apoptotic BCL-2 proteins, and conventional agents. As a model test system, four lymphoma cell lines SU-DHL4, SU-DHL6, SU-DHL8, and SU-DHL 10 were employed. To perform BH3 profiling, the ability of a panel of sensitizer peptides to induce mitochondrial outer membrane permeabilization (MOMP) in mitochondria isolated from the lymphoma cells were tested. […] MOMP was measured by quantifying cytochrome c release by ELISA.
SU-DHL4 and SU-DHL6 a “primed” phenotype, based on the sensitivity to sensitizer BH3 peptides. […] SU-DHL-10 responded poorly to both sensitizer and activator peptides, indicating the loss of the effector arm.

The next experiment has as its system CLL cells. Description: Annexin-V death assay of freshly isolated primary CLL cells. The class given is cell-based, human. As for the experimental part:
Cells were stained with fluorescent conjugates of Annexin-V (BioVision) and propidium iodide (PI) and analyzed on a FACSCalibur machine (Becton-Dickinson).
15 ml of blood in heparin treated tubes was obtained from each anonymous CLL patient and processed without freezing. Equal volume of media (RPMI medium, 10% […], supplemented with […] and 10 mg/ml transferrin) was mixed with each sample and CLL cells isolated by centrifugation through Ficoll-PAQUE Plus (Amersham). Cells were washed twice in media and cultured at a density of 2.0×10^6 cells/ml for up to 48 hours. Samples for FIG. 11A were obtained from 24 consecutive patients identified with WBC >50,000/μl. All guidelines and regulations were followed in accordance with IRB protocols #99-224 (Dana-Farber Cancer Institute). Normal PBMC's were obtained from tubing discarded following platelet donation by anonymous normal donors and processed as above, except cultured without insulin and transferrin.
Experimental replicates were performed using lysates or mitochondria from different CLL samples. In main body, where a P value is given, it was obtained by using a two-tailed Students t-test, and P<0.05 was considered statistically significant. GraphPad Prism software was used to determine EC50 values by non-linear dose-response curve fitting and to perform Mann-Whitney nonparametric testing in Table 5.
Freshly isolated primary CLL cells were incubated with ABT-737 or negative control enantiomer. After 48 hours, death was assessed using Annexin-V staining.

Experiment [1] has as its system mitochondria from FL5.12 cells. The experiment in a line: Cytochrome c release from FL5.12 mitochondria. It counts as biochemical, murine. As for the experimental part:
Mitochondria were purified from liver and FL5.12cells as previously described (Letai et al., 2002). Mitochondria were purified from leukemia cells and 2B4 cells as previously described for FL5.12 cells. Mitochondria were incubated with treatments for 45 (mouse liver mitochondria) or 35 minutes (FL5.12, 2B4, and leukemic mitochondria). Release of cytochrome c was determined by a comparison of cytochrome c in the pellet and supernatant following treatment, quantitated by ELISA (R&D systems).
Mitochondria were isolated from wt FL5.12 cells and FL5.12-BCL-2 cells in the presence of IL-3, and from FL5.12-BCL-2 cells following 24 hours of IL-3 deprivation. […] Mitochondrial pellets were subjected to chemical crosslinking as previously described (Letai et al., 2002).

Another experiment relates to SU-DHL8. The experiment in a line: BH3 profiling, cytochrome c release from lymphoma mitochondria. The class given is biochemical. The settings on record: SU-DHL-8.
Text: as §2

[2] abbreviates: FL5.12-BCL-2 cells deprived of IL-3 for 24 hours, peptides 10 μM.

For `CC[C@H](C)[C@H](NC(=O)[C@H](CC(C)C)NC(=O)[C@H](CCC(N)=O)NC(=O)[C@H](CC(C)C)NC(=O)[C@H](CCCCN)NC(=O)[C@H](CCCNC(=N)N)NC(=O)[C@H](C)NC(=O)[C@@H](NC(=O)[C@H](CCC(N)=O)NC(=O)[C@@H](NC(=O)[C@H](CCC(=O)O)NC(=O)[C@H](C)NC(=O)[C@H](CCC(N)=O)NC(=O)[C@H](Cc1c[nH]cn1)NC(=O)CCCCCNC(=S)Nc1ccc2c(c1)C(=O)OC21c2ccc(O)cc2Oc2cc(O)ccc21)C(C)C)[C@@H](C)CC)C(=O)N[C@@H](C)C(=O)N[C@@H](CC(=O)O)C(=O)N[C@@H](CCC(N)=O)C(=O)N[C@@H](Cc1ccccc1)C(=O)N[C@@H](Cc1c[nH]cn1)C(=O)N[C@@H](CCCNC(=N)N)C(=O)O` [BMF], the “cytochrome c release by peptide alone” value with mouse liver mitochondria was “none of the sensitizer BH3 peptides by themselves can induce cytochrome c release significantly above background”. Besides, the cytochrome c release result with leukemic mitochondria is listed as “capable of inducing near total cytochrome c release”; with CLL mitochondria, “induce cytochrome c release”. Besides, the “mitochondrial sensitivity to BH3 peptide” value in the experiment with SU-DHL6 is “strong”.
As to “BH3 domain peptide of BNIP3-a, VVEGEKEVEALKKSADWVSD (SEQ ID NO: 9) (not fully specified (N-terminus))”, the “cytochrome c release by peptide alone” value in the experiment on mouse liver mitochondria is “none of the sensitizer BH3 peptides by themselves can induce cytochrome c release significantly above background”. In addition, the cytochrome c release result in the experiment on CLL mitochondria is recorded as “do not”.
A word on the pEC50: it is −log10 of the EC50, conventionally taken in molar units. Take `CN(C)CC[C@@H](CSc1ccccc1)Nc1ccc(S(=O)(=O)NC(=O)c2ccc(N3CCN(Cc4ccccc4-c4ccc(Cl)cc4)CC3)cc2)cc1[N+](=O)[O-]` [NCE]: the pEC50 with CLL cells (twenty-four CLL samples, 48 hours, read-out: mean EC50, apoptosis of CLL cells) was 6.24.
As to “second BH3 domain peptide of murine NOXA, PADLKDECAQLRRIGDKVNL (SEQ ID NO: 7) (not fully specified (N-terminus)) [NOXA B]”, in the experiment with mouse liver mitochondria, the “cytochrome c release by peptide alone” value is listed as “none of the sensitizer BH3 peptides by themselves can induce cytochrome c release significantly above background”.
On to `CC(C)C[C@H](NC(=O)[C@H](C)NC(=O)[C@H](CCCCN)NC(=O)[C@H](CC(C)C)NC(=O)[C@H](CCCNC(=N)N)NC(=O)[C@H](C)NC(=O)[C@H](C)NC(=O)[C@@H](NC(=O)[C@H](CC(C)C)NC(=O)[C@H](CCC(N)=O)NC(=O)[C@H](C)NC(=O)[C@H](C)NC(=O)[C@H](CO)NC(=O)[C@H](CO)NC(=O)CCCCCNC(=S)Nc1ccc2c(c1)C(=O)OC21c2ccc(O)cc2Oc2cc(O)ccc21)[C@@H](C)O)C(=O)NCC(=O)N[C@@H](CC(=O)O)C(=O)N[C@@H](CCC(=O)O)C(=O)N[C@@H](CC(C)C)C(=O)N[C@@H](Cc1c[nH]cn1)C(=O)N[C@@H](CCC(N)=O)C(=O)O` [HRK], for which, in the experiment on mouse liver mitochondria, the “cytochrome c release by peptide alone” value is given as “none of the sensitizer BH3 peptides by themselves can induce cytochrome c release significantly above background”. For the same molecule, in the experiment with CLL mitochondria, the cytochrome c release result was “do not”.
As to “BADmut: point mutant (L→A) of BAD BH3, LWAAQRYGREARRMSDEFEGSFKGL (SEQ ID NO: 13), negative control (Chemically synthesized primer)”, the cytochrome c release result in the experiment with CLL mitochondria is reported as “do not”.
With `COC(=O)C[C@H](NC(=O)[C@H](C)NC(=O)[C@@H](NC(=O)OCc1ccccc1)C(C)C)C(=O)CF` [ZVAD-fmk] (Cbz-Val-Ala-Asp(OMe)-CH2F), the “protection against ABT-737-induced death” value in the experiment on CLL cells (co-treatment, 200 μM) is “protects against ABT-737-induced death”.
As for `CC[C@H](C)[C@H](NC(=O)[C@H](CC(N)=O)NC(=O)[C@H](CCCNC(=N)N)NC(=O)[C@@H](NC(=O)[C@@H](NC(=O)[C@H](CC(=O)O)NC(=O)[C@H](CCC(=O)O)NC(=O)CCCCCNC(=S)Nc1ccc2c(c1)C(=O)OC21c2ccc(O)cc2Oc2cc(O)ccc21)[C@@H](C)CC)[C@@H](C)CC)C(=O)N[C@@H](C)C(=O)N[C@@H](CCCNC(=N)N)C(=O)N[C@@H](Cc1c[nH]cn1)C(=O)N[C@@H](CC(C)C)C(=O)N[C@@H](C)C(=O)N[C@@H](CCC(N)=O)C(=O)N[C@H](C(=O)NCC(=O)N[C@@H](CC(=O)O)C(=O)N[C@@H](CO)C(=O)N[C@@H](CCSC)C(=O)N[C@@H](CC(=O)O)C(=O)N[C@@H](CCCNC(=N)N)C(=O)O)C(C)C` [BID], the cytochrome c release entry in experiment [1] (setting [2]) is “sensitivity to 10 μM BID BH3 is restored”; in experiment [1] (FL5.12-BCL-2 cells with IL-3, peptides 10 μM) it was “BCL-2 overexpression inhibits release”; in experiment [1] (wt FL5.12 cells with IL-3, peptides 10 uM) it was “potently induce cytochrome c release”. The “mitochondrial sensitivity to BH3 peptide” value in the experiment on SU-DHL8 was “responding strongly”.
On to `CC[C@H](C)[C@H](NC(=O)[C@H](CS)NC(=O)[C@H](C)NC(=O)[C@H](CC(C)C)NC(=O)[C@H](CCCNC(=N)N)NC(=O)[C@H](CC(C)C)NC(=O)[C@H](C)NC(=O)[C@H](CC(C)C)NC(=O)[C@H](C)NC(=O)[C@H](CC(=O)O)NC(=O)[C@H](CO)NC(=O)CNC(=O)[C@H](CCC(=O)O)NC(=O)[C@H](CCSC)NC(=O)CCCCCNC(=S)Nc1ccc2c(c1)C(=O)OC21c2ccc(O)cc2Oc2cc(O)ccc21)C(=O)NCC(=O)N[C@@H](CC(=O)O)C(=O)N[C@@H](CCC(=O)O)C(=O)N[C@@H](CCSC)C(=O)N[C@@H](CC(=O)O)C(=O)N[C@H](C(=O)O)C(C)C` [BIK], for which, in the experiment on mouse liver mitochondria, the “cytochrome c release by peptide alone” value is listed as “none of the sensitizer BH3 peptides by themselves can induce cytochrome c release significantly above background”. Moreover, the cytochrome c release result in experiment [1] (setting [2]) is reported as “does not induce cytochrome c release”; in the experiment with leukemic mitochondria, “capable of inducing near total cytochrome c release”.
